From patent publication US20250289785A1, “INDOLE DERIVATIVE, METHOD FOR PREPARING SAME, AND USE THEREOF” (MITOIMMUNE THERAPEUTICS INC., priority 2021, published 2025)
Like-named read-outs stand apart in the source and are kept apart here.

How the values were obtained:
[1] = test system: PC-12 cells; test: Cell death protective effect in adrenal cells against Erastin, glutamate and RSL3 (LDH); format: cell-based, rat; conditions: 24 h
Protocol: In order to identify the protective effect on adrenal cells, PC-12 cells were divided into 96-well plates by 1×10^4 and cultured for 18 to 24 hours. […] Erastin, glutamate, and RSL3 were treated to have final concentrations of 1 μM, 10 mM, and 0.3 μM, respectively, and cultured for 24 hours. In order to identify the protective effect of each compound, the degree of LDH extracellular secretion was measured using cytotoxicity LDH assay kit [Dojindo; CK12]. Briefly, at the time when the treatment of the cells with Erastin, glutamate, and RSL3 for 24 hours is completed, the supernatants containing the cells are taken by 70 μL and transferred to a new 96-well plate. The assay buffer included in the kit is added in an amount of 70 μL/well (the same amount as the sample) thereto, and then the plate is wrapped with a foil and the reaction is performed at room temperature for 15 minutes.

[2] = test system: NRK-49F cells; test: Cell death protective effect in renal fibroblasts against Erastin, glutamate and RSL3 (LDH); format: cell-based, rat; conditions: 24 h
Protocol: In order to identify the protective effect on renal fibroblasts, NRK-49F cells were divided into 96-well plates by 1×10^4 and cultured for 18 to 24 hours. The compounds of Examples were diluted to final concentrations of 0.1 and 1. μM, treated in each well, and incubated for 15 to 20 minutes. Erastin, glutamate, and RSL3 were treated to have final concentrations of 3 μM, 75 mM, and 3 μM, respectively, and cultured for 24 hours. In order to identify the protective effect of each compound, the degree of LDH extracellular secretion was measured using cytotoxicity LDH assay kit [Dojindo; CK12]. Briefly, at the time when the treatment of the cells with Erastin, glutamate, and RSL3 for 24 hours is completed, the supernatants containing the cells are taken by 70 μL and transferred to a new 96-well plate. The assay buffer included in the kit is added in an amount of 70 μL/well (the same amount as the sample) thereto, and then the plate is wrapped with a foil and the reaction is performed at room temperature for 15 minutes.

[3] = test system: H9C2 cells; test: Maintenance of intracellular calcium level in heart cells treated with t-BHP (FLIPR Calcium 6); format: cell-based, rat; conditions: H9C2, t-BHP 150 μM
Protocol: To examine the maintenance effect on calcium level in heart cells, H9C2 cells were divided into a 96-well plate by 1.5×10^4 cells/well and cultured for 24 hours. To measure intracellular calcium level, a FLIPR Calcium 6 assay kit (Molecular devices; #R8190) was used. Following the experimental method provided by the manufacturer, cells were treated with probenecid and calcium-sensitive dye for 1.75 hours, and then the cells were treated with the compound of Example 2 for 0.25 hours (the final concentration of the compound was 0.02 or 0.01 μM). And the cells were treated with t-BHP to a final concentration of 150 μM, then intracellular calcium level was measured every 30 seconds in real time.
FIG. 1 is a graph regarding the regulatory effect of the compound of Example 2 on calcium level under t-BHP treatment. The ΔF/F(Max−Min) value on the vertical axis is the difference between the maximum and minimum fluorescence intensity values of the calcium-sensitive dye after treatment with t-BHP (150 μM), and this value increases as intracellular calcium level increases.

[4] = Plasma and brain concentration after oral administration to ICR mice (HPLC-MS/MS); format: in vivo; conditions: 10 mg/kg; for concentration at 2 h / concentration at 24 h / AUC(0-t): ICR, mouse, po
Protocol: […] parameters can be represented as maximum concentration in plasma (Cmax), time taken until maximum concentration in plasma (Tmax), area under the plasma concentration-time curve (AUClast and AUCinf), and half-life (t1/2), and the like.
The compound of example 2 was orally administered to ICR mice at a dose of 10 mg/kg, and drug concentration in mouse plasma was measured using HPLC-MS/MS spectroscopy at 0.5, 1, 2, 4, 8 and 24 hours. The mouse brains were removed at 2 or 24 hours, and drug concentration in the brain was measured using HPLC-MS/MS spectroscopy. The area under the plasma concentration v. time curve (AUCinf) was measured to be […], and at 2 hours after administration drug concentration in plasma was 546 ng/mL and brain drug concentration was measured at 1043 ng/mL. […] Further, at 24 hours after administration, for Embodiment 2, drug concentration in plasma was measured to be 4.7 ng/mL and drug concentration in the brain was measured at 5.7 ng/mL. With the brain-plasma drug concentration ratio at 1.23, drug exposure in the brain was still high.
The Comparative Example compound was orally administered to ICR mice at a dose of 10 mg/kg, and drug concentration in mouse plasma was measured using HPLC-MS/MS spectroscopy at 0.5, 1, 2, 4, 8 and 24 hours. The mouse brains were removed at 2 or 24 hours, and drug concentration in the brain was measured using HPLC-MS/MS spectroscopy.

[5] = PC-12, Erastin, 1 μM, compound 0.1 μM
[6] = PC-12, Erastin, 1 μM, compound 1.0 μM
[7] = PC-12, Glutamate, 10 mM, compound 0.1 μM
[8] = PC-12, Glutamate, 10 mM, compound 1.0 μM
[9] = PC-12, RSL3, 0.3 μM, compound 0.1 μM
[10] = PC-12, RSL3, 0.3 μM, compound 1.0 μM
[11] = Glutamate, 75 mM, compound 0.1 μM
[12] = Glutamate, 75 mM, compound 1.0 μM
[13] = ICR mouse, 2 hours after administration

COCc1cc(NC2CCOCC2)c2[nH]c(-c3ccccc3)cc2c1 [Example 1, 5-(methoxymethyl)-2-phenyl-N-tetrahydropyran-4-yl-1H-indol-7-amine]
inhibition (%) [1, 5]: 100% | inhibition (%) [1, 6]: 100% | inhibition (%) [1, 7]: 77% | inhibition (%) [1, 8]: 100% | inhibition (%) [1, 9]: 100% | inhibition (%) [1, 10]: 100% | inhibition (%) ([2]; Erastin, 3 μM, compound 0.1 μM): 96% | inhibition (%) ([2]; Erastin, 3 μM, compound 1.0 μM): 95% | inhibition (%) [2, 11]: 100% | inhibition (%) [2, 12]: 100% | inhibition (%) ([2]; RSL3, 3 μM, compound 0.1 μM): 98% | inhibition (%) ([2]; RSL3, 3 μM, compound 1.0 μM): 98%

COCc1cc(NC2CCCC2)c2[nH]c(-c3ccccc3)cc2c1 [Example 2, N-cyclopentyl-5-(methoxymethyl)-2-phenyl-1H-indol-7-amine]
intracellular calcium level, ΔF/F(Max−Min) ([3]; compound 0.01 μM): significantly decreased | intracellular calcium level, ΔF/F(Max−Min) ([3]; compound 0.02 μM): within normal range | inhibition (%) [1, 5]: 100% | inhibition (%) [1, 6]: 100% | inhibition (%) [1, 7]: 96% | inhibition (%) [1, 8]: 100% | inhibition (%) [1, 9]: 100% | inhibition (%) [1, 10]: 100% | inhibition (%) ([2]; Erastin, 3 μM, compound 0.1 μM): 97% | inhibition (%) ([2]; Erastin, 3 μM, compound 1.0 μM): 94% | inhibition (%) [2, 11]: 100% | inhibition (%) [2, 12]: 100% | inhibition (%) ([2]; RSL3, 3 μM, compound 0.1 μM): 98% | inhibition (%) ([2]; RSL3, 3 μM, compound 1.0 μM): 97% | brain drug concentration [4, 13]: 1043.2 ng/mL | drug concentration in plasma [4, 13]: 546.1 ng/mL | AUClast, Brain ([4]; ICR mouse, from the 2 and 24 hr samples): 12581.1 ng·h/g | AUC(0-inf) ([4]; ICR mouse, plasma, read-out: area under the plasma concentration v. time curve (AUCinf)): 4960 ng·h/mL | concentration at 2 h ([4]; brain, 2 hours after administration, read-out: brain drug concentration): 1040 ng/mL | concentration at 24 h ([4]; brain, 24 hours after administration, read-out: drug concentration in the brain): 5.7 ng/mL | concentration at 2 h ([4]; plasma, 2 hours after administration, read-out: drug concentration in plasma): 546 ng/mL | concentration at 24 h ([4]; plasma, 24 hours after administration, read-out: drug concentration in plasma): 4.7 ng/mL | AUC(0-t) ([4]; plasma, from the 2 and 24 hr samples, read-out: AUClast, Plasma): 6600 ng·h/mL | AUC(0-t) ([4]; plasma, plasma, read-out: 0.5~24 hr AUClast): 4940 ng·h/mL | AUC(0-t) ([4]; plasma, plasma, read-out: area under the plasma concentration v. time curve (AUClast)): 4940 ng·h/mL | Kp at 2 h ([4]; brain/plasma, ICR mouse, 2 hours after administration, read-out: brain-plasma drug concentration ratio (B/P ratio)): 1.91 | Kp at 24 h ([4]; brain/plasma, ICR mouse, 24 hours after administration, read-out: brain-plasma drug concentration ratio (B/P ratio)): 1.23 | Kp ([4]; brain/plasma, ICR mouse, read-out: AUClast B/P ratio): 1.9

COCc1cc(NC2CC[S+]([O-])CC2)c2[nH]c(-c3ccccc3)cc2c1 (stereo not shown) [Example 14, 5-(methoxymethyl)-N-(1-oxothian-4-yl)-2-phenyl-1H-indol-7-amine]
inhibition (%) [1, 5]: 100% | inhibition (%) [1, 6]: 100% | inhibition (%) [1, 7]: 45% | inhibition (%) [1, 8]: 100% | inhibition (%) [1, 9]: 100% | inhibition (%) [1, 10]: 100% | inhibition (%) ([2]; Erastin, 3 μM, compound 0.1 μM): 96% | inhibition (%) ([2]; Erastin, 3 μM, compound 1.0 μM): 93% | inhibition (%) [2, 11]: 100% | inhibition (%) [2, 12]: 100% | inhibition (%) ([2]; RSL3, 3 μM, compound 0.1 μM): 97% | inhibition (%) ([2]; RSL3, 3 μM, compound 1.0 μM): 97%

CCOCc1cc(NC2CCCC2)c2[nH]c(-c3ccccc3)cc2c1 [Example 19, N-cyclopentyl-5-(ethoxymethyl)-2-phenyl-1H-indol-7-amine]
inhibition (%) [1, 5]: 100% | inhibition (%) [1, 6]: 100% | inhibition (%) [1, 7]: 100% | inhibition (%) [1, 8]: 100% | inhibition (%) [1, 9]: 100% | inhibition (%) [1, 10]: 100% | inhibition (%) ([2]; Erastin, 3 μM, compound 0.1 μM): 96% | inhibition (%) ([2]; Erastin, 3 μM, compound 1.0 μM): 95% | inhibition (%) [2, 11]: 100% | inhibition (%) [2, 12]: 100% | inhibition (%) ([2]; RSL3, 3 μM, compound 0.1 μM): 97% | inhibition (%) ([2]; RSL3, 3 μM, compound 1.0 μM): 96%

CCOCc1cc(NC2CCOCC2)c2c(c1)c(COC)c(-c1ccccc1)n2C [Example 29, 5-(ethoxymethyl)-3-(methoxymethyl)-1-methyl-2-phenyl-N-(tetrahydro-2H-pyran-4-yl)-1H-indol-7-amine]
inhibition (%) [1, 5]: 0% | inhibition (%) [1, 6]: 100% | inhibition (%) [1, 7]: 22% | inhibition (%) [1, 8]: 71% | inhibition (%) [1, 9]: 26% | inhibition (%) [1, 10]: 100% | inhibition (%) ([2]; Erastin, 3 μM, compound 0.1 μM): 3% | inhibition (%) ([2]; Erastin, 3 μM, compound 1.0 μM): 93% | inhibition (%) [2, 11]: 17% | inhibition (%) [2, 12]: 100% | inhibition (%) ([2]; RSL3, 3 μM, compound 0.1 μM): 0% | inhibition (%) ([2]; RSL3, 3 μM, compound 1.0 μM): 96%

COCCc1cc(NC2CCOCC2)c2[nH]c(-c3ccccc3)cc2c1 [Example 41, 5-(2-methoxyethyl)-2-phenyl-N-(tetrahydro-2H-pyran-4-yl)-1H-indol-7-amine]
inhibition (%) [1, 5]: 100% | inhibition (%) [1, 6]: 100% | inhibition (%) [1, 7]: 76% | inhibition (%) [1, 8]: 100% | inhibition (%) [1, 9]: 100% | inhibition (%) [1, 10]: 100% | inhibition (%) ([2]; Erastin, 3 μM, compound 0.1 μM): 96% | inhibition (%) ([2]; Erastin, 3 μM, compound 1.0 μM): 94% | inhibition (%) [2, 11]: 100% | inhibition (%) [2, 12]: 100% | inhibition (%) ([2]; RSL3, 3 μM, compound 0.1 μM): 97% | inhibition (%) ([2]; RSL3, 3 μM, compound 1.0 μM): 97%

CCOCc1cc(NC2CCOCC2)c2[nH]c(-c3ccccc3)c(-c3ncc[nH]3)c2c1 [Example 46, 5-(ethoxymethyl)-3-(1H-imidazol-2-yl)-2-phenyl-N-(tetrahydro-2H-pyran-4-yl)-1H-indole-7-amine]
inhibition (%) [1, 5]: 0% | inhibition (%) [1, 6]: 38% | inhibition (%) [1, 7]: 4% | inhibition (%) [1, 8]: 6% | inhibition (%) [1, 9]: 0% | inhibition (%) [1, 10]: 100% | inhibition (%) ([2]; Erastin, 3 μM, compound 0.1 μM): 5% | inhibition (%) ([2]; Erastin, 3 μM, compound 1.0 μM): 64% | inhibition (%) [2, 11]: 13% | inhibition (%) [2, 12]: 16% | inhibition (%) ([2]; RSL3, 3 μM, compound 0.1 μM): 0% | inhibition (%) ([2]; RSL3, 3 μM, compound 1.0 μM): 5%

CCOC(=O)c1ccc(NC2CCCCC2)c(N)c1 [Ferrostatin-1, reference compound]
inhibition (%) [1, 5]: 100% | inhibition (%) [1, 6]: 100% | inhibition (%) [1, 7]: 29% | inhibition (%) [1, 8]: 99% | inhibition (%) [1, 9]: 100% | inhibition (%) [1, 10]: 100% | inhibition (%) ([2]; Erastin, 3 μM, compound 0.1 μM): 98% | inhibition (%) ([2]; Erastin, 3 μM, compound 1.0 μM): 97% | inhibition (%) [2, 11]: 90% | inhibition (%) [2, 12]: 100% | inhibition (%) ([2]; RSL3, 3 μM, compound 0.1 μM): 97% | inhibition (%) ([2]; RSL3, 3 μM, compound 1.0 μM): 97%
